As usually defined, the IC50 is the midpoint of a concentration-inhibition curve.

In assay [1] the target is T1, KRASwt (Homo sapiens, UniProt P01116).
T1 construct: made in house; host or cells: E. coli BL21 (DE3)
As to the kind of experiment: Bio-Biochem-PPI-HTRF Ras-SOS1 interaction assay (KRAS wt). Conditions: 5 nM. Format: biochemical. A digest of the protocol: (§1)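 Inhibition of His-hSOS1 binding to GST-tagged wild-type or G12D K-Ras is read as HTRF ratio (665/620 nm) following incubation of about 10 minutes or longer, and IC50 values are fitted from duplicate six-point titrations.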
(In general: Time-resolved FRET reads energy transfer from a long-lived donor to a nearby acceptor.)

Assay [2] deals with T2, KRASG12D (Homo sapiens, UniProt P01116, G12D).
T2 construct: made in house; host or cells: E. coli BL21 (DE3)
As to the kind of experiment: Bio-Biochem-PPI-HTRF Ras-SOS1 interaction assay (KRAS G12D). Conditions: 5 nM. It is filed as biochemical. A digest of the protocol:
as §1

T1 sequence (P01116 1-188 isoform P01116-2): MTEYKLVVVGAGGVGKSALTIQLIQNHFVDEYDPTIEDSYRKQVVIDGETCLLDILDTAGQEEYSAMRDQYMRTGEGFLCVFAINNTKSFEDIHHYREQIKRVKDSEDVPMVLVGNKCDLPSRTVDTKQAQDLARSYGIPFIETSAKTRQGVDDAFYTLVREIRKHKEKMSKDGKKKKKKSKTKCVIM
T2 sequence (P01116 1-188 isoform P01116-2 G12D): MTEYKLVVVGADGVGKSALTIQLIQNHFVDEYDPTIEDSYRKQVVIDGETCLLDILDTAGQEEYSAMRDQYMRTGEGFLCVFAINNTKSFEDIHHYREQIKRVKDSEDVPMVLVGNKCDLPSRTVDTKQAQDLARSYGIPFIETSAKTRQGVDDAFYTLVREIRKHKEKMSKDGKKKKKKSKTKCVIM

`C[C@H](Oc1nc(N2CCOC3(CNC3)C2)c2cc(Cl)c(-c3ccc(F)c4sc(N)c(C#N)c34)c(F)c2n1)[C@@H]1CCCN1C` (single isomer, unassigned; atropisomer 1) [compound 128]: the IC50 in assay [1] is under 5 µM; in assay [2] it was at least 5 µM.
Regarding `CN(C)C/C=C/C(=O)N1CC2(C1)CN(c1nc(OC[C@@]34CCCN3C[C@H](F)C4)nc3c(F)c(-c4ccc(F)c5sc(N)nc45)c(Cl)cc13)CCO2` [compound 178, (E)-1-(8-(7-(2-amino-7-fluorobenzo[d]thiazol-4-yl)-6-chloro-8-fluoro-2-(((2R,7aS)-2-fluorotetrahydro-1H-pyrrolizin-7a(5H)-yl)methoxy)quinazolin-4-yl)-5-oxa-2,8-diazaspiro[3.5]nonan-2-yl)-4-(dimethylamino)but-2-en-1-one], the IC50 in assay [1] and in assay [2] was under 5 µM in each case.
Consider `CN(C)C/C=C/C(=O)N1CC2(CCCCN(c3nc(OC[C@@]45CCCN4C[C@H](F)C5)nc4c(F)c(-c5ccc(F)c6sc(N)c(C#N)c56)c(Cl)cc34)C2)C1` [compound 188, 2-amino-4-(6-chloro-4-(2-((E)-4-(dimethylamino)but-2-enoyl)-2,6-diazaspiro[3.6]decan-6-yl)-8-fluoro-2-(((2R,7aS)-2-fluorotetrahydro-1H-pyrrolizin-7a(5H)-yl)methoxy)quinazolin-7-yl)-7-fluorobenzo[b]thiophene-3-carbonitrile], for which the IC50 in assay [1] and in assay [2] was under 5 µM throughout.
Consider `N#Cc1c(N)sc2c(F)ccc(-c3c(Cl)cc4c(N5CCCCC6(CN(C(=O)C(F)(F)F)C6)C5)nc(OC[C@@]56CCCN5C[C@H](F)C6)nc4c3F)c12` [compound 206, 2-amino-4-(6-chloro-8-fluoro-2-(((2R,7aS)-2-fluorotetrahydro-1H-pyrrolizin-7a(5H)-yl)methoxy)-4-(2-(2,2,2-trifluoroacetyl)-2,6-diazaspiro[3.6]decan-6-yl)quinazolin-7-yl)-7-fluorobenzo[b]thiophene-3-carbonitrile], for which the 50% inhibitory concentration (IC50) in assay [1] and in assay [2] was under 5 µM in each case.
Consider `N#Cc1c(N)sc2c(F)ccc(-c3c(Cl)cc4c(N5CCCCC6(CN(C(=O)C7(O)COC7)C6)C5)nc(OC[C@@]56CCCN5C[C@H](F)C6)nc4c3F)c12` [compound 327, 2-amino-4-(6-chloro-8-fluoro-2-(((2R,7aS)-2-fluorotetrahydro-1H-pyrrolizin-7a(5H)-yl)methoxy)-4-(2-(3-hydroxyoxetane-3-carbonyl)-2,6-diazaspiro[3.6]decan-6-yl)quinazolin-7-yl)-7-fluorobenzo[b]thiophene-3-carbonitrile], for which the IC50 in assay [1] and in assay [2] was under 5 µM throughout.
Regarding `N#CN1CC2(C1)CN(c1nc(OC[C@@]34CCCN3C[C@H](F)C4)nc3c(F)c(-c4ccc(F)c5sc(N)nc45)c(Cl)cc13)CCO2` [compound 187, 8-(7-(2-amino-7-fluorobenzo[d]thiazol-4-yl)-6-chloro-8-fluoro-2-(((2R,7aS)-2-fluorotetrahydro-1H-pyrrolizin-7a(5H)-yl)methoxy)quinazolin-4-yl)-5-oxa-2,8-diazaspiro[3.5]nonane-2-carbonitrile], the concentration for half-maximal inhibition (IC50) in assay [1] and in assay [2] was under 5 µM in each case.
Take `N#Cc1c(N)sc2c(F)ccc(-c3c(Cl)cc4c(N5CCOCC6(CN(C(=O)C(F)Cl)C6)C5)nc(OC[C@@]56CCCN5C[C@H](F)C6)nc4c3F)c12` (stereo partly drawn) [compound 283, 2-amino-4-(6-chloro-4-(2-(2-chloro-2-fluoroacetyl)-6-oxa-2,9-diazaspiro[3.6]decan-9-yl)-8-fluoro-2-(((2R,7aS)-2-fluorotetrahydro-1H-pyrrolizin-7a(5H)-yl)methoxy)quinazolin-7-yl)-7-fluorobenzo[b]thiophene-3-carbonitrile]: the IC50 in assay [1] and in assay [2] was under 5 µM in each case.
Take `C[C@H](Oc1nc(N2CCCC3(CN(C(=O)[C@@H]4C[C@H]4F)C3)C2)c2cc(Cl)c(-c3ccc(F)c4sc(N)c(C#N)c34)c(F)c2n1)[C@@H]1CCCN1C` [compound 126, 2-amino-4-(6-chloro-8-fluoro-4-(2-((1S,2R)-2-fluorocyclopropane-1-carbonyl)-2,6-diazaspiro[3.5]nonan-6-yl)-2-((S)-1-((S)-1-methylpyrrolidin-2-yl)ethoxy)quinazolin-7-yl)-7-fluorobenzo[b] thiophene-3-carbonitrile]: the IC50 in assay [1] and in assay [2] was under 5 µM throughout.
For `N#Cc1c(N)sc2c(F)ccc(-c3c(Cl)cc4c(N5CCCCC6(CN(C(=O)C7C8CCOC87)C6)C5)nc(OC[C@@]56CCCN5C[C@H](F)C6)nc4c3F)c12` (stereo partly drawn) [compound 270, 4-(4-(2-(2-oxabicyclo[3.1.0]hexane-6-carbonyl)-2,6-diazaspiro [3.6]decan-6-yl)-6-chloro-8-fluoro-2-(((2R,7aS)-2-fluorotetrahydro-1H-pyrrolizin-7a(5H)-yl)methoxy)quinazolin-7-yl)-2-amino-7-fluorobenzo[b]thiophene-3-carbonitrile], the half-maximal inhibitory concentration (IC50) in assay [1] and in assay [2] was under 5 µM in each case.
Consider `N#Cc1c(N)sc2c(F)ccc(-c3c(Cl)cc4c(N5CCCCC6(CN(C(=O)[C@H]7CC7(F)F)C6)C5)nc(OC[C@@]56CCCN5C[C@H](F)C6)nc4c3F)c12` (single isomer, unassigned) [compound 118], for which the IC50 in assay [1] and in assay [2] was under 5 µM throughout.
For the molecule `Nc1nc2c(-c3c(Cl)cc4c(N5CCCC6(CNCCO6)C5)nc(OC[C@@]56CCCN5C[C@H](F)C6)nc4c3F)ccc(F)c2s1` (stereo partly drawn) [compound 159, 4-(6-chloro-8-fluoro-2-(((2R,7aS)-2-fluorotetrahydro-1H-pyrrolizin-7a(5H)-yl)methoxy)-4-(1-oxa-4,8-diazaspiro[5.5]undecan-8-yl)quinazolin-7-yl)-7-fluorobenzo[d]thiazol-2-amine], the half-maximal inhibitory concentration (IC50) in assay [1] and in assay [2] was under 5 µM throughout.
In the case of `CN1CCC[C@H]1COc1nc(N2CCCC3(CNC3)C2)c2cc(Cl)c(-c3cccc4sc(N)nc34)c(F)c2n1` [compound 172, 4-(6-chloro-8-fluoro-2-(((S)-1-methylpyrrolidin-2-yl)methoxy)-4-(2,6-diazaspiro[3.5]nonan-6-yl)quinazolin-7-yl)benzo[d]thiazol-2-amine], the IC50 in assay [1] and in assay [2] was under 5 µM throughout.
As for `N#Cc1c(N)sc2c(F)ccc(-c3c(Cl)cc4c(N5CCCCC6(C5)CN(S(=O)(=O)C5CC5)C6)nc(OC[C@@]56CCCN5C[C@H](F)C6)nc4c3F)c12` [compound 195, 2-amino-4-(6-chloro-4-(2-(cyclopropylsulfonyl)-2,6-diazaspiro[3.6]decan-6-yl)-8-fluoro-2-(((2R,7aS)-2-fluorotetrahydro-1H-pyrrolizin-7a(5H)-yl)methoxy)quinazolin-7-yl)-7-fluorobenzo[b]thiophene-3-carbonitrile], the IC50 in assay [1] and in assay [2] was under 5 µM throughout.
With `N#Cc1c(N)sc2c(F)ccc(-c3c(Cl)cc4c(N5CCC6(CN(C#N)C6)C5)nc(OC[C@@]56CCCN5C[C@H](F)C6)nc4c3F)c12` [compound 182, 6-(7-(2-amino-3-cyano-7-fluorobenzo[b]thiophen-4-yl)-6-chloro-8-fluoro-2-(((2R,7aS)-2-fluorotetrahydro-1H-pyrrolizin-7a(5H)-yl)methoxy)quinazolin-4-yl)-2,6-diazaspiro[3.4] octane-2-carbonitrile], the IC50 in assay [1] and in assay [2] was under 5 µM in each case.

The values above are taken from patent US20240109918A1, “HETEROCYCLIC COMPOUNDS AND USES THEREOF” (Kumquat Biosciences Inc., priority 2022, published 2024).
